Test results from ChEMBL document CHEMBL1159117, “Anti-invasive and anti-angiogenic activities of naturally occurring dibenzodiazepine BU-4664L and its derivatives” (Bioorg Med Chem Lett, 2010).
Converted amounts (≈) assume the structure as drawn.

Assays:
[1] = Cytotoxicity against mouse Colon 26-L5 cells; assay type: functional, cell-based
[2] = system: Renca; test: Cytotoxicity against mouse Renca cells at >10 ug/ml; assay type: functional
[3] = Antiinvasive activity against mouse Colon 26-L5 at >1 ug/ml by Matrigel assay; assay type: functional
[4] = system: HUVEC; test: Cytotoxicity against HUVEC cells; assay type: cell-based; conditions: Homo sapiens
[5] = system: Renca; test: Cytotoxicity against mouse Renca cells; assay type: functional, cell-based
[6] = Antiinvasive activity against mouse Colon 26-L5 by Matrigel assay; assay type: functional
[7] = system: Renca; test: Antiinvasive activity against mouse Renca at >1 ug/ml by Matrigel assay; assay type: functional
[8] = system: HUVEC; test: Antiangiogenic activity against HUVEC cells assessed as inhibition of vascular formation at >1 ug/ml after 6 hrs by […]; assay type: functional, Homo sapiens
[9] = Cytotoxicity against HUVEC cells at >10 ug/ml; assay type: cell-based; conditions: human, read-out: INH
[10] = system: Renca; test: Antiinvasive activity against mouse Renca by Matrigel assay; assay type: functional, cell-based
[11] = system: HUVEC; test: Antiangiogenic activity against HUVEC cells assessed as inhibition of vascular formation after 6 hrs by […]; assay type: functional, cell-based; conditions: Homo sapiens
[12] = Cytotoxicity against mouse Colon 26-L5 cells at >1 ug/ml; assay type: functional
[13] = system: HUVEC; test: Antiinvasive activity against HUVEC assessed as inhibition of cell migration after 6 hrs by Matrigel assay; assay type: functional, cell-based; conditions: Homo sapiens
[14] = Antiinvasive activity against mouse Colon 26-L5 assessed as inhibition of cell migration at >1 ug/ml after 6 hrs by Matrigel assay; assay type: functional
[15] = Antiinvasive activity against mouse Colon 26-L5 assessed as inhibition of cell migration after 6 hrs by Matrigel assay; assay type: functional
[16] = biological target: Matrix metalloproteinase-9 (Homo sapiens, UniProt P14780); test: Inhibition of MMP9
[17] = biological target: 72 kDa type IV collagenase (Homo sapiens, UniProt P08253); test: Inhibition of MMP2
Sequence of 72 kDa type IV collagenase (P08253 whole entry): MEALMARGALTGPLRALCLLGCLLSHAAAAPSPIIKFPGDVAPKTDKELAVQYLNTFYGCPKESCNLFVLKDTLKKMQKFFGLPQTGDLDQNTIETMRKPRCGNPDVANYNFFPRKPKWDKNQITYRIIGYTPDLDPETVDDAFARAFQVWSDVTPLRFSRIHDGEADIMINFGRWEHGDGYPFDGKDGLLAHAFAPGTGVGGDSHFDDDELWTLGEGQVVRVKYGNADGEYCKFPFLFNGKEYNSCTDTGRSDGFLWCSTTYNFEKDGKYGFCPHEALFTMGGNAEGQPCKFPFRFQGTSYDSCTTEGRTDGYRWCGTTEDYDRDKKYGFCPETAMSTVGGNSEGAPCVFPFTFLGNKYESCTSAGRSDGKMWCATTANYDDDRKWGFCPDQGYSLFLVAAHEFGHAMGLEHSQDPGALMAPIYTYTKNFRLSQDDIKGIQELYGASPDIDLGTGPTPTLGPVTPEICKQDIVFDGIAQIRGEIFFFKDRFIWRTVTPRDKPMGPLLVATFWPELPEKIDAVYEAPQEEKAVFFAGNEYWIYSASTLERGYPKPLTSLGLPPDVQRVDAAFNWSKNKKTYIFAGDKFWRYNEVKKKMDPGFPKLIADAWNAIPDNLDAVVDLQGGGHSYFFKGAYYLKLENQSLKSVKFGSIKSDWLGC

Sequence of Matrix metalloproteinase-9 (P14780 whole entry): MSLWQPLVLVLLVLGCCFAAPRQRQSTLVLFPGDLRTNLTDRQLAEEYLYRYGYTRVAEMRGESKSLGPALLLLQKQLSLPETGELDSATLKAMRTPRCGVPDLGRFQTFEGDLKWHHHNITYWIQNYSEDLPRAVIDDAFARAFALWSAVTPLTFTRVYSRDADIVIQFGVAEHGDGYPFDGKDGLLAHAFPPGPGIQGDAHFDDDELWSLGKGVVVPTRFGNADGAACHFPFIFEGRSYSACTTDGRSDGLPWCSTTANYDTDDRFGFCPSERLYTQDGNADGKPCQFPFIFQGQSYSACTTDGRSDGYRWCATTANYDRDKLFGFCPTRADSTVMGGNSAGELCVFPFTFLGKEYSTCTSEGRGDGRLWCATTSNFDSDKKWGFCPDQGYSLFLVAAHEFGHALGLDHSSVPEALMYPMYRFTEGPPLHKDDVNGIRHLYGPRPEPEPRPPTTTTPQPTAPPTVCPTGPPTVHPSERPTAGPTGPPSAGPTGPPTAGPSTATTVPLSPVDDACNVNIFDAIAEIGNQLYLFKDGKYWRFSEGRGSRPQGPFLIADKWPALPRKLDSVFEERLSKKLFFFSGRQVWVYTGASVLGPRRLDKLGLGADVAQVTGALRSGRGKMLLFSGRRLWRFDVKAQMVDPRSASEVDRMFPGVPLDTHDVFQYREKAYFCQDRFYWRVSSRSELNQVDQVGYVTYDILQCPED

CC(=O)Oc1cc(OC(C)=O)c2c(c1)N(C/C=C(\C)CC/C=C(\C)CCC=C(C)C)C(=O)c1cccc(OC(C)=O)c1N2
IC50 [1]: 7.6 µg/mL (≈ 12.9 µM) | inhibition (INH) [2]: 0% | inhibition (INH) [3]: 0% | IC50 [4]: > 10 µg/mL | IC50 [5]: > 10 µg/mL | IC50 [6]: > 1 µg/mL | inhibition (INH) [7]: 40% | inhibition (INH) [8]: 0% | cytotoxicity [9]: 0% | IC50 [10]: > 1 µg/mL | IC50 [11]: > 1 µg/mL

COc1cc(OC)c2c(c1)N(CCC(C)CCCC(C)CCCC(C)C)C(=O)c1cccc(OC)c1N2 (stereo not drawn)
IC50 [1]: > 10 µg/mL | inhibition (INH) [2]: 31% | inhibition (INH) [12]: 8% | IC50 [4]: > 10 µg/mL | IC50 [5]: > 10 µg/mL | IC50 [6]: 1 µg/mL (≈ 1.96 µM) | inhibition (INH) [7]: 44% | inhibition (INH) [8]: 30% | cytotoxicity [9]: 32% | IC50 [10]: 1 µg/mL (≈ 1.96 µM) | IC50 [11]: > 1 µg/mL

CC(C)CCCC(C)CCCC(C)CCN1C(=O)c2cccc(O)c2Nc2c(O)cc(O)cc21 (stereo not drawn)
IC50 [13]: 0.0024 µg/mL (≈ 0.00512 µM) | IC50 [1]: 10 µg/mL (≈ 21.3 µM) | inhibition (INH) [2]: 0% | inhibition (INH) [14]: 22% | inhibition (INH) [3]: 30% | IC50 [15]: > 1 µg/mL | IC50 [4]: > 10 µg/mL | IC50 [5]: > 10 µg/mL | IC50 [6]: > 1 µg/mL | inhibition (INH) [7]: 40% | cytotoxicity [9]: 0% | IC50 [10]: > 1 µg/mL | IC50 [11]: 0.23 µg/mL (≈ 0.491 µM)

COc1cc(OC)c2c(c1)N(C/C=C(\C)CC/C=C(\C)CCC=C(C)C)C(=O)c1cccc(OC)c1N2
IC50 [13]: 0.0076 µg/mL (≈ 0.0151 µM) | IC50 [1]: > 10 µg/mL | inhibition (INH) [2]: 40% | inhibition (INH) [12]: 30% | IC50 [15]: 0.67 µg/mL (≈ 1.33 µM) | IC50 [4]: > 10 µg/mL | IC50 [5]: > 10 µg/mL | IC50 [6]: 1 µg/mL (≈ 1.98 µM) | cytotoxicity [9]: 0% | IC50 [10]: 0.78 µg/mL (≈ 1.55 µM) | IC50 [11]: 0.11 µg/mL (≈ 0.218 µM)

CC(C)=CCC/C(C)=C/CC/C(C)=C/CN1C(=O)c2cccc(O)c2Nc2c(O)cc(O)cc21 [DIAZEPINOMICIN]
IC50 [13]: 0.43 µg/mL (≈ 0.93 µM) | IC50 [1]: 7.8 µg/mL (≈ 16.9 µM) | IC50 [16]: 1300 nM | IC50 [15]: 0.63 µg/mL (≈ 1.36 µM) | IC50 [4]: 2 µg/mL (≈ 4.32 µM) | IC50 [5]: 8.3 µg/mL (≈ 17.9 µM) | IC50 [6]: 1 µg/mL (≈ 2.16 µM) | IC50 [10]: 0.78 µg/mL (≈ 1.69 µM) | IC50 [11]: 0.72 µg/mL (≈ 1.56 µM) | IC50 [17]: 994 nM

CO[C@@H]1[C@H](OC(=O)/C=C/C=C/C=C/C=C/C(=O)O)CC[C@]2(CO2)[C@H]1[C@@]1(C)O[C@@H]1CC=C(C)C [FUMAGILLIN]
IC50 [13]: 0.023 µg/mL (≈ 0.0502 µM) | IC50 [11]: 0.034 µg/mL (≈ 0.0741 µM)
